Laboratory results published in patent publication US20170281611A1, “QUINOLINES AND THEIR USE FOR TREATING ENDOPLASMIC RETICULUM STRESS-CAUSED DISEASES” (EIGER BIOPHARMACEUTICALS, INC., priority 2014, published 2017).

Columns and labels:
[1] = test system: 6-OHDA lesioned Wistar rats; assay: Rat unilateral 6-OHDA model of Parkinson's disease, stepping test; format: in vivo; details: D11, 10 mg/kg IP once daily for 15 days; 6-OHDA/Vehicle 1.19±0.24 steps
Description: (§1) Fifty adult male Wistar rats were used. The rats from different groups (G1 to G5) were randomized. At the beginning of the study, the rats were about 5 weeks old and naive to previous administration of any drug.
(§2) A stereotaxic injection of 6-OHDA (G2 to G5) or saline (G1: sham group) was performed to induce a unilateral dopaminergic lesion on day 0 (D0). Surgery was performed on D0 under ketamine (50 mg/kg) and xylazine (10 mg/kg). The rats of G2 to G5 received a unilateral injection of 6-OHDA (6 μL) in the left substantia nigra pars compacta. Jouve et al., J. Neurosci. 2010, 30, 9919-9928. The rats of the G1 sham group were injected with saline. During surgery, local analgesia was achieved using subcutaneous injections of lidocaine. At the end of surgery, the rats were treated with buprenorphine (0.05 mg/kg, S.C.).
The stepping test was performed after IT test, both before the 6-OHDA lesion induction on D0 and on D11. Around D−6, the stepping test was performed eight consecutive times for the right paw of each animal to obtain baseline values. On D11, the stepping test was performed one hour after the rats were dosed. Each rat was hold by an experimenter and only one of the two forelimbs was left free to move above a plane surface and the other was held with the paw touching the table. The rats were then to be moved slowly forward by the experimenter. The number of adjusting steps was countered for the right paw. Olsson et al., J. Neurosci. 1995, 15, 3863-3875.
L-DOPA and benserazide (a peripheric DOPA decarboxylase inhibitor) were prepared together as a single solution containing 0.9% NaCl and 0.1% ascorbic acid.
All the dosings were given via the IP route, once daily, Sunday excluded.

PS1/APP mice = assay: Alzheimer's disease model, 2-photon Ca2+ imaging of CA1 pyramidal neurons in brain slices; format: in vivo, mouse; details: 10 mg/kg IP for 4 weeks, vs saline
From the text: PS1/APP mice (PS1M146V and APPSWE) (Howlett et al., Brain Res. 2004, 1017, 130-136) were used. Age-matched NTg controls were on the same background strain (C57bl6/J9).
Mice were deeply anesthetized with halothane and rapidly decapitated. The brains were extracted rapidly and 300 or 400 μm-thick transverse hippocampal slices were cut with a vibrating microtome into ice-cold oxygenated artificial cerebrospinal fluid (aCSF) with the following composition (in mM): 125 NaCl, 2.5 KCl, 1.25 KH2PO4, 1.2 MgSO4, 2 CaCl2, 10 dextrose, and 25 NaHCO3.
Ca^2+ imaging within individual neurons was performed in brain slice preparations using a custom-made video-rate multiphoton-imaging system based on an upright Olympus BX51 microscope frame. […] Emitted fluorescence light was detected by a wide-field photomultiplier (Electron Tubes) to derive a video signal that was captured and analyzed by Video Savant 5.0 software (IO Industries). […] For clarity, results are expressed as inverse ratios so that increases in [Ca^2+] correspond to increasing ratios. The % change is calculated as […], where F is the average resting fluorescence at baseline and ΔF is the decrease of fluorescence reflecting Ca release. Differences between drug- and saline-treated groups were assessed using two-way ANOVA and Scheffe post hoc analysis for significance (p<0.05). […]

ob/ob mice = assay: Glucose tolerance test (GTT); format: in vivo, mouse; details: day 7 post-injection, compared with vehicle
Description: Both glucose (GTT) and insulin (ITT) tolerance tests were performed following a 10-hr fast and an additional 2-hr after CDNs injection with baseline blood glucose measurement taken before the beginning of the test. For the GTT, D-glucose dissolved in 0.9% NaCl was delivered intraperitoneally at a dose of 1 g/kg. The blood glucose level was measured 0, 15, 30, 60, 90, and 120 min after glucose administration. For the ITT, insulin was administered intraperitoneally at a dose of 1 IU/kg. The blood glucose level was measured 0, 15, 30, 60, 90, and 120 min after insulin administration. Glucose levels were measured in blood samples drawn from the tail vein using OneTouch Ultra 2 Meter (LifeScan, Inc.).

SERCA = assay: Ca-ATPase assay, microsomal preparations from HEK 293 cells; format: biochemical, human
Description: A Ca-ATPase assay was performed using microsomal preparations from HEK 293 cells at a series of calcium concentrations corresponding to the physiological range, relative to controls. The ATP hydrolysis rate was measured over a range of calcium concentrations in the presence of test compounds using an NADH-linked, enzyme-coupled ATPase assay adapted for 96-well microplates, with Vmax determined by fitting the ATPase calcium-dependence to the Hill function. […] CaCl2 was added to set free [Ca^2+] to the specific values.

[2] = test system: 6-OHDA lesioned Wistar rats; assay: Rat unilateral 6-OHDA model of Parkinson's disease, initiation time (IT) test; format: in vivo; details: D11, 10 mg/kg IP once daily for 15 days, t test, vs 6-OHDA/Vehicle
Description: as §1, §2
The IT test was performed both before the 6-OHDA lesion induction on D0 and on day 11 (D11) after the 6-OHDA lesion induction. Around six days (D−6) before the 6-OHDA lesion induction, the IT test was performed eight consecutive times for each limb of each rat to obtain baseline values. On D11, the IT test was performed one hour after the rats were dosed. For every test, only one of the two forelimbs of each rat was left free to move and the time that is necessary to initiate the movement toward a plane surface was recorded using 180 sec as break-off point. […]

Cc1ccc2cccc(NC(=O)c3ccc(OC(C)C)cc3)c2n1 [Compound A12, 4-Isopropoxy-N-(2-methylquinolin-8-yl)benzamide]
number of adjusting steps [1]: 6.94±0.86 steps
ER Ca2+ signaling (RyR-Ca2+ response to caffeine) (PS1/APP mice): restores ER Ca^2+ signaling
hyperglycemic response to the i.p. glucose challenge (GTT) (ob/ob mice): significantly reduced
Vmax of a SERCA (SERCA): significantly increased
akinesia measured in the IT test [2]: statistically significant improvement
